Source: patent US4175081A, “5-Substituted thiadiazole ureas” (priority 1977, dated 1979)

What was measured:
[1] = test system: Amaranth pigweed (PW); assay: Pre-emergence herbicide test; type: in vivo, Amaranthus retroflexus; conditions: 336 h, 8 lb/acre, two weeks after treatment
Summary of the method: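 Pigweed was surface-seeded in potted soil one day before spraying at 8 lbs compound per acre, or 4 lbs/acre, in 38 gallons per acre. Pots were kept in the greenhouse with sub-irrigation only; injury or control was rated visually two weeks after treatment.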

[2] = test system: Barnyard grass (BG); assay: Post-emergence herbicide test; type: in vivo; conditions: Echinochloa crus-galli, 336 h, two weeks after treatment; for pest or weed control at 8966.8 g/ha: 8 lb/acre
Summary of the method: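 Greenhouse pot-grown barnyard grass seedlings sprayed post-emergence at 8 lbs active compound per acre (some at 4 lbs/acre) in 38 gallons per acre, then sub-irrigated. Injury or control rated visually two weeks after treatment.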

[3] = test system: variety of crops and weed species; assay: Pre- and post-emergence herbicide tests, overall assessment of Tables III-VI; type: in vivo; conditions: data of Tables III-VI
Protocol: All crop and weed species were planted individually in 3' plastic pots containing potting soil. Four seeds each of corn, cotton, and snapbeans were seeded to a depth equal to the diameter of the seed. All other species were surface seeded and sprinkled with screened soil in an amount sufficient to cover the seed. Immediately after planting, all pots were watered by sub-irrigation in greenhouse trays. Pots for the pre-emergence phase were seeded one day before treatment.
Compounds were tested at rates of application equivalent to 8 lbs. of actual compound per acre in a spray volume of 38 gallons per acre. Spray hood constants required to deliver the above volume are as follows:
Two weeks after treatment, pre- and post-emergence injury or control was visually rated, and the results were as shown in the following tables. Pre-emergence data are provided in TABLE III and post-emergence data are provided in TABLE IV, for compounds having the formula illustrated in TABLE I. Correspondingly, pre-emergence and post-emergence data, respectively, are set forth in TABLES V AND VI, for compounds having the formula illustrated in TABLE II.

[4] = test system: Johnson grass (JG); assay: Pre-emergence herbicide test; type: in vivo, Sorgum helepense; conditions: Sorghum halepense, 336 h, 8 lb/acre, two weeks after treatment
Summary of the method: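 Pots seeded one day before spraying; compound applied pre-emergence at 8 lbs/acre (or 4 lbs/acre) in 38 gallons/acre spray volume. Sub-irrigated in greenhouse; injury/control rated visually two weeks after treatment.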

[5] = test system: Cotton (CT); assay: Pre-emergence herbicide test; type: in vivo, Gossypium hirsutum var. DPL smooth leaf; conditions: Gossypium hirsutum, 336 h, 8 lb/acre, two weeks after treatment
Summary of the method: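 Crop and weed species seeded one day before treatment, then sprayed pre-emergence at 8 lbs actual compound per acre (also 4 lbs/acre formulations) in 38 gallons per acre. Pots kept in greenhouse with sub-irrigation only; injury or control visually rated two weeks after treatment.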

[6] = test system: Barnyard grass (BG); assay: Pre-emergence herbicide test; type: in vivo; conditions: Echinochloa crus-galli, 336 h, 8 lb/acre, two weeks after treatment
Summary of the method: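 Barnyard grass surface-seeded in potting soil and sprayed pre-emergence one day after seeding, at 8 or 4 lb compound/acre in 38 gal/acre spray volume. Pots kept in greenhouse with sub-irrigation only; injury or control rated visually two weeks after treatment.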

[7] = test system: Crabgrass (CG); assay: Pre-emergence herbicide test; type: in vivo, Digitaria sanquinalis; conditions: Digitaria sanguinalis, pre-emergence, 336 h; 8 lb/acre; two weeks after treatment
Summary of the method: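 Crabgrass (Digitaria sanquinalis) was surface seeded in 3' plastic pots of potting soil, covered with screened soil, and watered by sub-irrigation in greenhouse trays. Pots were seeded one day before spraying in a hood with a moving belt and fixed nozzle. Plants stayed in the greenhouse on sub-irrigation, and pre-emergence control was rated visually two weeks after treatment.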

[8] = test system: Corn (CN); assay: Post-emergence herbicide test; type: in vivo; conditions: Zea mays, 336 h, two weeks after treatment; for pest or weed control at 8966.8 g/ha: 8 lb/acre
Summary of the method: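 Greenhouse seedlings grown in potting soil and sprayed post-emergence at 8 lbs compound/acre (formulations also made for 4 lbs/acre) in 38 gallons/acre spray volume. Watering by sub-irrigation only. Injury or control rated visually two weeks after treatment.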

[9] = test system: Crabgrass (CG); assay: Post-emergence herbicide test; type: in vivo, Digitaria sanquinalis; conditions: Digitaria sanguinalis, post-emergence, 336 h, two weeks after treatment; for pest or weed control at 8966.8 g/ha: 8 lb/acre
Summary of the method: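 Crabgrass (Digitaria sanquinalis) was surface seeded individually in 3' plastic pots of potting soil, covered with screened soil, and watered by sub-irrigation in greenhouse trays. Planting was staggered so seedlings reached the target stage together. Post-emergence sprays were applied in a hood with a removable belt and fixed nozzle, and control was visually rated two weeks after treatment.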

[10] = test system: Bean (BN); assay: Post-emergence herbicide test; type: in vivo, Phaseolus vulgaris var. Black Valentine; conditions: Phaseolus vulgaris, post-emergence, 336 h, two weeks after treatment; for pest or weed control at 8966.8 g/ha: 8 lb/acre
Summary of the method: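 Snapbean (Phaseolus vulgaris var. Black Valentine) was tested post-emergence. Four seeds were sown in 3' plastic pots of potting soil at a depth equal to the seed diameter, then sub-irrigated in greenhouse trays. Planting dates were staggered so plants were sprayed once primary leaves had expanded, with the growing point at the primary leaf nodes.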

[11] = test system: Yellow foxtail grass (YF); assay: Post-emergence herbicide test; type: in vivo, Setaria glauca; conditions: Setaria, 336 h, two weeks after treatment; for pest or weed control at 8966.8 g/ha: 8 lb/acre
Summary of the method: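 Potted seedlings grown in greenhouse, planting staggered to reach the target stage together, then sprayed post-emergence at 8 lbs actual compound/acre in 38 gallons/acre (4 lbs/acre formulations also prepared). Sub-irrigated afterwards. Injury or control rated visually two weeks after treatment.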

[12] = test system: Johnson grass (JG); assay: Post-emergence herbicide test; type: in vivo, Sorgum helepense; conditions: Sorghum halepense, 336 h, two weeks after treatment; for pest or weed control at 8966.8 g/ha: 8 lb/acre
Summary of the method: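 Greenhouse pot-grown seedlings sprayed post-emergence at 8 lbs compound per acre (some at 4 lbs/acre) in 38 gallons per acre spray volume. Sub-irrigated thereafter. Injury/control rated visually two weeks after treatment.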

[13] = test system: Turnip (TP); assay: Post-emergence herbicide test; type: in vivo, Brassica sp.; conditions: Brassica rapa, post-emergence, 336 h, two weeks after treatment; for pest or weed control at 8966.8 g/ha: 8 lb/acre
Summary of the method: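 A greenhouse post-emergence herbicide test on turnip. Seeds were sown on the surface of potting soil in 3' plastic pots, lightly covered with screened soil and watered from below. Planting was timed so seedlings had 1 or 2 true leaves above the cotyledons at spraying, done in a hood with a fixed nozzle. Control or injury was scored by eye after two weeks.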

[14] = test system: Cotton (CT); assay: Post-emergence herbicide test; type: in vivo, Gossypium hirsutum var. DPL smooth leaf; conditions: Gossypium hirsutum, post-emergence, 336 h, two weeks after treatment; for pest or weed control at 8966.8 g/ha: 8 lb/acre
Summary of the method: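 Cotton (Gossypium hirsutum var. DPL smooth leaf) was grown in 3' plastic pots of potting soil, four seeds per pot, planted at a depth equal to the seed diameter and watered by sub-irrigation. At the stage of expanded cotyledons with the first true leaf 1' long, plants were sprayed post-emergence in a hood with a fixed nozzle over a moving belt. Percent control was rated visually two weeks later.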

[15] = test system: Corn (CN); assay: Pre-emergence herbicide test; type: in vivo; conditions: Zea mays, 336 h, 8 lb/acre, two weeks after treatment
Summary of the method: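 Four corn seeds per pot, sown at seed-diameter depth one day before spraying, got soil surface treatment at 8 lbs/acre (4 lbs/acre formulations also prepared) in 38 gallons/acre. Pots were greenhouse-held with sub-irrigation only. Injury or control was scored visually two weeks after treatment.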

[16] = test system: Bean (BN); assay: Pre-emergence herbicide test; type: in vivo, Phaseolus vulgaris var. Black Valentine; conditions: Phaseolus vulgaris, 336 h, 8 lb/acre, two weeks after treatment
Summary of the method: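 Black Valentine bean was seeded in potting soil one day before spraying. Compound was applied pre-emergence at 8 lbs/acre (also 4 lbs/acre) in 38 gallons per acre. Plants were sub-irrigated and injury or control was rated visually after two weeks.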

[17] = test system: Turnip (TP); assay: Pre-emergence herbicide test; type: in vivo, Brassica sp.; conditions: Brassica rapa, pre-emergence, 336 h; 8 lb/acre; two weeks after treatment
Summary of the method: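 Turnip (Brassica sp.) seeds were surface sown in 3' plastic pots of potting soil, covered with a thin layer of screened soil, and sub-irrigated in greenhouse trays. Pots were seeded one day ahead of treatment, sprayed pre-emergence under a hood with a fixed nozzle and moving belt, then kept in the greenhouse.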

[18] = test system: Yellow foxtail grass (YF); assay: Pre-emergence herbicide test; type: in vivo, Setaria glauca; conditions: Setaria, 336 h, 8 lb/acre, two weeks after treatment
Summary of the method: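 Seeds surface-sown in potting soil one day before spraying; compounds applied pre-emergence at 8 or 4 lbs/acre in 38 gallons/acre spray. Pots held in greenhouse with sub-irrigation only. Injury or control rated visually two weeks after treatment.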

[19] = test system: Amaranth pigweed (PW); assay: Post-emergence herbicide test; type: in vivo, Amaranthus retroflexus; conditions: 336 h, two weeks after treatment; for pest or weed control at 8966.8 g/ha: 8 lb/acre
Summary of the method: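 Pot-grown pigweed was sprayed post-emergence at the 1–2 true-leaf stage with compound at rates equivalent to 8 lbs per acre (formulations also prepared for 4 lbs/acre) in 38 gallons per acre, using a hood with fixed nozzle. Plants were sub-irrigated in the greenhouse, and injury or control was rated visually two weeks after treatment.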

SMILES	pest or weed control at 8966.8 g/ha [1]	pest or weed control at 8966.8 g/ha [2]	herbicidal effectiveness / selectivity, in words [3]	pest or weed control at 8966.8 g/ha [4]	pest or weed control at 8966.8 g/ha [5]	pest or weed control at 8966.8 g/ha [6]	pest or weed control at 8966.8 g/ha [7]	pest or weed control at 8966.8 g/ha [8]	pest or weed control at 8966.8 g/ha [9]	pest or weed control at 8966.8 g/ha [10]	pest or weed control at 8966.8 g/ha [11]	pest or weed control at 8966.8 g/ha [12]	pest or weed control at 8966.8 g/ha [13]	pest or weed control at 8966.8 g/ha [14]	pest or weed control at 8966.8 g/ha [15]	pest or weed control at 8966.8 g/ha [16]	pest or weed control at 8966.8 g/ha [17]	pest or weed control at 8966.8 g/ha [18]	pest or weed control at 8966.8 g/ha [19]	further results
CN(C)C(=O)Nc1nnc(C(F)(F)F)s1 [Example 2, 1,1-Dimethyl-3-[5-Trifluoromethyl-2-(1,3,4-Thiadiazolyl)] Urea]	90%	60%	extremely effective when applied to a variety of crops and weed species	90%	70%	90%	90%	100%	60%	60%	60%	40%	80%	90%	50%	80%	100%	90%	90%	pest or weed control at 2241.7 g/ha ([2]; 2 lb/acre): 90%; pest or weed control at 4483.4 g/ha ([2]; 4 lb/acre): 90%; pest or weed control ([8]; 2 lb/acre): 100%; pest or weed control at 4483.4 g/ha ([8]; 4 lb/acre): 100%; pest or weed control ([9]; 2 lb/acre): 100%; pest or weed control at 4483.4 g/ha ([9]; 4 lb/acre): 80%; pest or weed control at 2241.7 g/ha ([10]; 2 lb/acre): 80%; pest or weed control at 4483.4 g/ha ([10]; 4 lb/acre): 70%; pest or weed control ([11]; 2 lb/acre): 90%; pest or weed control at 4483.4 g/ha ([11]; 4 lb/acre): 90%; pest or weed control ([12]; 2 lb/acre): 90%; pest or weed control at 4483.4 g/ha ([12]; 4 lb/acre): 30%; pest or weed control at 2241.7 g/ha ([13]; 2 lb/acre): 100%; pest or weed control at 4483.4 g/ha ([13]; 4 lb/acre): 90%; pest or weed control at 2241.7 g/ha ([14]; 2 lb/acre): 100%; pest or weed control at 4483.4 g/ha ([14]; 4 lb/acre): 90%; pest or weed control at 2241.7 g/ha ([19]; 2 lb/acre): 100%; pest or weed control at 4483.4 g/ha ([19]; 4 lb/acre): 100%
CSc1nnc(N(C)C(=O)N(C)C)s1 [Example 5, 1,1,3-trimethyl-3-[5-methylthio-2-(1,3,4-thiadiazolyl)] urea]	100%	100%	extremely effective when applied to a variety of crops and weed species	50%	90%	80%	100%	100%	100%	100%	100%	90%	100%	100%	70%	90%	100%	90%	100%	–
CCNC(=O)Nc1nnc(C(F)(F)F)s1 [Example 9]	–	40%	more selective when applied to a certain crop or weed species	10%	30%	20%	10%	30%	60%	70%	30%	80%	60%	50%	50%	100%	10%	20%	100%	–
O=C(Nc1ccc(Cl)cc1)Nc1nnc(C(F)(F)F)s1 [Example 15]	–	20%	more selective when applied to a certain crop or weed species	10%	80%	10%	10%	20%	30%	40%	20%	20%	50%	60%	10%	30%	10%	10%	100%	–
